These results are taken from publication PMC9607427, “Novel 7-Chloro-(4-thioalkylquinoline) Derivatives: Synthesis and Antiproliferative Activity through Inducing Apoptosis and DNA/RNA Damage” (Pharmaceuticals, 2022).

Test [1] has as its system CCRF-CEM lymphoblasts. The test is described as follows: BrU incorporation analysis (RNA synthesis). It counts as cell-based, human. The note with it: 24 h. As to the method: The effect of compounds on cell cycle distribution was determined to gain insights into the mechanism of its antiproliferative activity. […] For example, as compared with control, the percentage of cells in G2/M phases was increased by treatment with 5 × IC50 μM of compounds for 24 h (Table 4). […] As shown in (Table 4), there was a marked increase in the sub-G1 from 2.91 in untreated cells. 5-Bromo-2-deoxyuridine (BrDU) is incorporated into newly synthesized DNA, and 5-bromouridine (BrU) pulse labeling is therefore commonly used as a proliferation marker. Low BrDU and BrU incorporation into the DNA or RNA, respectively, of treated cells with all compounds at 5 × IC50 reflected inhibition of DNA and RNA synthesis, indicating irreversible apoptotic changes. The percentage of […] cells incorporating 5-bromouridine is proportional to the transcriptional activity of CCRF-CEM cells. Cells were cultured and treated as described above. Before harvesting, pulse-labeling with 1 mM BrU for 30 min followed. The cells were then fixed in 1% buffered paraformaldehyde with 0.05% NP-40 at rt for 15 min, and then stored at 4 °C overnight. Before measurement, they were washed with 1% glycine in PBS, washed with PBS again and stained with primary anti-BrDU antibody cross-reacting to BrU (Exbio) for 30 min at rt in the dark. From this point, the experiment was performed exactly as in the previous method.

Test [2] concerns CCRF-CEM lymphoblasts. Nature of the test: Cell cycle and apoptosis analysis (propidium iodide flow cytometry). The class given is cell-based, human. The settings on record: 24 h. As to the method:
On the other hand, we wanted to find out whether compounds 48–50, 53, 54, 57, 59–63, 65–70, and 72 can stop the cell cycle of cancer cells, as it has been previously reported for chloroquine. For a more detailed description of the biological activity of the studied derivatives, we performed a cell cycle analysis of the most sensitive CCRF-CEM cells after 24 h of incubation with the novel 7-chloro-(4-thioalkylquinoline) derivatives (Table 4).
The effect of compounds on cell cycle distribution was determined to gain insights into the mechanism of its antiproliferative activity. […] For example, as compared with control, the percentage of cells in G2/M phases was increased by treatment with 5 × IC50 μM of compounds for 24 h (Table 4). […] As shown in (Table 4), there was a marked increase in the sub-G1 from 2.91 in untreated cells. 5-Bromo-2-deoxyuridine (BrDU) is incorporated into newly synthesized DNA, and 5-bromouridine (BrU) pulse labeling is therefore commonly used as a proliferation marker. Low BrDU and BrU incorporation into the DNA or RNA, respectively, of treated cells with all compounds at 5 × IC50 reflected inhibition of DNA and RNA synthesis, indicating irreversible apoptotic changes. The percentage of […] cells incorporating 5-bromouridine is proportional to the transcriptional activity of CCRF-CEM cells.
CCRF-CEM cells were seeded at a density of 1 × 10^6 cells per one mL in 6-well plates (TTP) and were cultivated with compounds at concentrations corresponding to 1 × or 5 × IC50 value. Together with the compounds-treated cells, a vehicle-treated sample was harvested at the same time point. After 24 h, the cells were washed with cold phosphate-buffered saline (PBS) and fixed in 70% ethanol added dropwise and stored overnight at −20 °C. Afterward, cells were washed in hypotonic citrate buffer, treated with RNase (50 µg mL^−1), and stained with propidium iodide. Flow cytometry using a 488 nm single beam laser (Becton Dickinson) was used for measurement. The cell cycle was analyzed by the software ModFitLT (Verity), and apoptosis was measured in a logarithmic model expressing the percentage of the particles with propidium content lower than cells in the G0/G1 phase (<G1) of the cell cycle. Half of the sample was used for pH3Ser10 antibody (Sigma) labeling and subsequent flow cytometry analysis of the cells in mitosis.
A general note: Flow cytometry measures light scatter and fluorescence of single cells or particles in a stream.

Where [3] appears, read: 5 × IC50 (second value of cell).

Take `COc1ccc(OC)c(C(=O)OCCS(=O)(=O)c2cc[n+]([O-])c3cc(Cl)ccc23)c1` [Compound 65, 2-[(N-Oxide 7-chloroquinolin-4-yl)sulfonyl]ethyl-2,5-dimethoxybenzoate]: the “RNA Synthesis (% positive of cells)” value in the test on CCRF-CEM lymphoblasts [1] (1 × IC50 (first value of cell)) is reported as 36.04%. The “RNA Synthesis (% positive of cells)” value with CCRF-CEM lymphoblasts [1] (setting [3]) turned out to be 24.95%. Besides, in the test with CCRF-CEM lymphoblasts [2] (1 × IC50 (first value of cell)), the “>G2/M, % of Total Cellular Populations” value worked out at 7.55%; the “G0/G1, % of Total Cellular Populations” value was 40.82%; the “G2/M, % of Total Cellular Populations” value came to 20.04%; the “S, % of Total Cellular Populations” value stood at 39.14%. Further, the “Sub-G1 Apoptosis, % of Total Cellular Populations” value (“Sub-G1 Apoptosis, %” for short) in the test with CCRF-CEM lymphoblasts [2] (1 × IC50 (first value of cell)) is recorded as 17.77%. For the same compound, in the test with CCRF-CEM lymphoblasts [2] (setting [3]), the “>G2/M, % of Total Cellular Populations” value stood at 7.13%; the “G0/G1, % of Total Cellular Populations” value came out at 47.21%; the “G2/M, % of Total Cellular Populations” value was 19.99%; the “S, % of Total Cellular Populations” value worked out at 32.8%. Also, in the test with CCRF-CEM lymphoblasts [2] (setting [3]), the “Sub-G1 Apoptosis, %” value was 8.67%.
For `COc1ccc(C(=O)OCCS(=O)(=O)c2cc[n+]([O-])c3cc(Cl)ccc23)cc1` [Compound 63, 2-[(N-Oxide 7-chloroquinolin-4-yl)sulfonyl]ethyl-4-methoxybenzoate], in the test on CCRF-CEM lymphoblasts [1] (1 × IC50 (first value of cell)), the “RNA Synthesis (% positive of cells)” value was 35.01%. Also, the “RNA Synthesis (% positive of cells)” value with CCRF-CEM lymphoblasts [1] (setting [3]) was found to be 2.79%. In the test on CCRF-CEM lymphoblasts [2] (1 × IC50 (first value of cell)), the “>G2/M, % of Total Cellular Populations” value is listed as 8.56%; the “G0/G1, % of Total Cellular Populations” value is given as 42.76%; the “G2/M, % of Total Cellular Populations” value is given as 16.81%; the “S, % of Total Cellular Populations” value is 40.42%. In addition, in the test on CCRF-CEM lymphoblasts [2] (1 × IC50 (first value of cell)), the “Sub-G1 Apoptosis, %” value is 3.41%. Moreover, in the test on CCRF-CEM lymphoblasts [2] (setting [3]), the “>G2/M, % of Total Cellular Populations” value stood at 11.38%; the “G0/G1, % of Total Cellular Populations” value was 34.13%; the “G2/M, % of Total Cellular Populations” value is 17.88%; the “S, % of Total Cellular Populations” value is 47.99%. Further, the “Sub-G1 Apoptosis, %” value in the test with CCRF-CEM lymphoblasts [2] (setting [3]) is 12.97%.
As for `Cc1ccc([N+](=O)[O-])c(C(=O)OCCS(=O)(=O)c2cc[n+]([O-])c3cc(Cl)ccc23)c1` [Compound 70, 2-[(N-Oxide 7-chloroquinolin-4-yl)sulfonyl]ethyl-5-methyl-2-nitrobenzoate], the “RNA Synthesis (% positive of cells)” value in the test on CCRF-CEM lymphoblasts [1] (1 × IC50 (first value of cell)) is 35.28%. Also, the “RNA Synthesis (% positive of cells)” value with CCRF-CEM lymphoblasts [1] (setting [3]) is recorded as 2.88%. Besides, in the test with CCRF-CEM lymphoblasts [2] (1 × IC50 (first value of cell)), the “>G2/M, % of Total Cellular Populations” value is listed as 10.54%; the “G0/G1, % of Total Cellular Populations” value amounted to 39.54%; the “G2/M, % of Total Cellular Populations” value was 21.99%; the “S, % of Total Cellular Populations” value stood at 38.46%. Moreover, the “Sub-G1 Apoptosis, %” value in the test on CCRF-CEM lymphoblasts [2] (1 × IC50 (first value of cell)) is recorded as 3.21%. In the test with CCRF-CEM lymphoblasts [2] (setting [3]), the “>G2/M, % of Total Cellular Populations” value was determined as 10.33%; the “G0/G1, % of Total Cellular Populations” value turned out to be 33.44%; the “G2/M, % of Total Cellular Populations” value is recorded as 23.25%; the “S, % of Total Cellular Populations” value was 43.31%. For the same compound, in the test on CCRF-CEM lymphoblasts [2] (setting [3]), the “Sub-G1 Apoptosis, %” value was 13.75%.
As to `COc1ccc(C(=O)OCCS(=O)(=O)c2cc[n+]([O-])c3cc(Cl)ccc23)cc1[N+](=O)[O-]` [Compound 69, 2-[(N-Oxide 7-chloroquinolin-4-yl)sulfonyl]ethyl-4-methoxy-3-nitrobenzoate], the “RNA Synthesis (% positive of cells)” value with CCRF-CEM lymphoblasts [1] (1 × IC50 (first value of cell)) is recorded as 31.54%. Moreover, the “RNA Synthesis (% positive of cells)” value with CCRF-CEM lymphoblasts [1] (setting [3]) amounted to 2.64%. Also, in the test with CCRF-CEM lymphoblasts [2] (1 × IC50 (first value of cell)), the “>G2/M, % of Total Cellular Populations” value was 8.58%; the “G0/G1, % of Total Cellular Populations” value is given as 43.48%; the “G2/M, % of Total Cellular Populations” value was found to be 20.83%; the “S, % of Total Cellular Populations” value stood at 35.7%. Also, the “Sub-G1 Apoptosis, %” value in the test on CCRF-CEM lymphoblasts [2] (1 × IC50 (first value of cell)) was determined as 3.3%. In addition, in the test with CCRF-CEM lymphoblasts [2] (setting [3]), the “>G2/M, % of Total Cellular Populations” value turned out to be 12.52%; the “G0/G1, % of Total Cellular Populations” value came to 38.16%; the “G2/M, % of Total Cellular Populations” value was 19.27%; the “S, % of Total Cellular Populations” value was 42.58%. In the test with CCRF-CEM lymphoblasts [2] (setting [3]), the “Sub-G1 Apoptosis, %” value was found to be 13.89%.
`COc1ccccc1C(=O)OCCS(=O)(=O)c1cc[n+]([O-])c2cc(Cl)ccc12` [Compound 68, 2-[(N-Oxide 7-chloroquinolin-4-yl)sulfonyl]ethyl-2-methoxybenzoate]: the “RNA Synthesis (% positive of cells)” value with CCRF-CEM lymphoblasts [1] (1 × IC50 (first value of cell)) is given as 37.4%. In addition, the “RNA Synthesis (% positive of cells)” value in the test on CCRF-CEM lymphoblasts [1] (setting [3]) turned out to be 3.8%. For the same compound, in the test with CCRF-CEM lymphoblasts [2] (1 × IC50 (first value of cell)), the “>G2/M, % of Total Cellular Populations” value worked out at 9.87%; the “G0/G1, % of Total Cellular Populations” value worked out at 35.73%; the “G2/M, % of Total Cellular Populations” value is given as 18.54%; the “S, % of Total Cellular Populations” value is recorded as 45.73%. Besides, the “Sub-G1 Apoptosis, %” value with CCRF-CEM lymphoblasts [2] (1 × IC50 (first value of cell)) came to 2.71%. For the same compound, in the test with CCRF-CEM lymphoblasts [2] (setting [3]), the “>G2/M, % of Total Cellular Populations” value is reported as 9.65%; the “G0/G1, % of Total Cellular Populations” value is listed as 48.5%; the “G2/M, % of Total Cellular Populations” value is reported as 19.64%; the “S, % of Total Cellular Populations” value was determined as 31.86%. In the test on CCRF-CEM lymphoblasts [2] (setting [3]), the “Sub-G1 Apoptosis, %” value was found to be 7.16%.
`COc1cc(OC)c(C(=O)OCCS(=O)(=O)c2cc[n+]([O-])c3cc(Cl)ccc23)cc1OC` [Compound 66, 2-[(N-Oxide 7-chloroquinolin-4-yl)sulfonyl]ethyl-2,4,5-trimethoxybenzoate]: the “RNA Synthesis (% positive of cells)” value with CCRF-CEM lymphoblasts [1] (1 × IC50 (first value of cell)) is listed as 29.44%. The “RNA Synthesis (% positive of cells)” value with CCRF-CEM lymphoblasts [1] (setting [3]) stood at 3.05%. In the test on CCRF-CEM lymphoblasts [2] (1 × IC50 (first value of cell)), the “>G2/M, % of Total Cellular Populations” value is 10.42%; the “G0/G1, % of Total Cellular Populations” value was 39.53%; the “G2/M, % of Total Cellular Populations” value is 16.6%; the “Sub-G1 Apoptosis, %” value is on record as 2.95%. Besides, in the test with CCRF-CEM lymphoblasts [2] (setting [3]), the “>G2/M, % of Total Cellular Populations” value amounted to 10.45%; the “G0/G1, % of Total Cellular Populations” value was 48.53%; the “G2/M, % of Total Cellular Populations” value is recorded as 26.56%; the “S, % of Total Cellular Populations” value turned out to be 24.9%. Also, the “Sub-G1 Apoptosis, %” value in the test on CCRF-CEM lymphoblasts [2] (setting [3]) turned out to be 11.72%.
As for `O=C(OCCS(=O)(=O)c1cc[n+]([O-])c2cc(Cl)ccc12)c1ccc(C(F)(F)F)cc1` [Compound 72, 2-[(N-Oxide 7-chloroquinolin-4-yl)sulfonyl]ethyl-4-(trifluoromethyl)benzoate], in the test with CCRF-CEM lymphoblasts [1] (1 × IC50 (first value of cell)), the “RNA Synthesis (% positive of cells)” value was 21.64%. Also, in the test with CCRF-CEM lymphoblasts [1] (setting [3]), the “RNA Synthesis (% positive of cells)” value came to 2.19%. Also, in the test on CCRF-CEM lymphoblasts [2] (1 × IC50 (first value of cell)), the “>G2/M, % of Total Cellular Populations” value is reported as 8.35%; the “G0/G1, % of Total Cellular Populations” value is 47.22%; the “G2/M, % of Total Cellular Populations” value was 18.46%; the “S, % of Total Cellular Populations” value amounted to 34.32%. For the same compound, the “Sub-G1 Apoptosis, %” value with CCRF-CEM lymphoblasts [2] (1 × IC50 (first value of cell)) came out at 4.05%. In the test on CCRF-CEM lymphoblasts [2] (setting [3]), the “>G2/M, % of Total Cellular Populations” value is on record as 13.12%; the “G0/G1, % of Total Cellular Populations” value worked out at 31.36%; the “G2/M, % of Total Cellular Populations” value stood at 21.98%; the “S, % of Total Cellular Populations” value came out at 46.65%. The “Sub-G1 Apoptosis, %” value with CCRF-CEM lymphoblasts [2] (setting [3]) turned out to be 10.12%.
